In one experiment the test system is LDL-receptor null mice. Description: Hyperlipidemia model, LDL-receptor null mice on cholesterol diet. The following applies: 100 mg/kg oral once a day, 15 days, plasma, vs vehicle. The class given is in vivo. On the procedure:
First, 14 week old LDL-receptor null mice were fed with a diet containing 0.8% cholesterol, 0.1% cholic acid and 20% coconut oil and once a day orally dosed with carboxymethyl cellulose suspension alone Compound A at 100 mg/kg (in carboxymethyl cellulose suspension) for 15 days. At the end of the study, plasma levels of cholesterol and triglycerides were determined using an enzymatic method (INFINITY™ Sigma Diagnostics).

The subject of a further experiment is MCP-1. Description: MCP-1 ELISA in TNFα-induced endothelial cells. The class given is cell-based. The conditions noted are these: Homo sapiens, Endothelial cell, 0.5 ng/ml TNFα, overnight, read-out: inhibition of MCP-1 levels. The method, then: MCP-1 ELISA is carried out using Quantikine Human MCP-1 kit as described by manufacturer (R&D Systems, Minneapolis, Minn., Catalog #DY279E). Mouse anti-human MCP-1 was used as the capture antibody and HRP-conjugated goat anti-human MCP-1 (Zymed (now part of Invitrogen) catalog #81-1620, Carlsbad, Calif.) was used as the detection antibody. Culture media were incubated with capture antibody (in 96 well) for 2 hours at room temperature. Wells were washed three times with wash buffer (0.05% tween-20 in phosphate buffered saline (PBS) pH 7.4) followed by incubation with detection antibody for 2 hours at room temperature. Color development was read at 450 nm in a Microplate reader.
TNF-alpha (TNFα) (R&D Systems, Minneapolis, Minn., Catalogue No. 210-TA-010) is a pro-inflammatory cytokine implicated in the development of cardiovascular disease. Inflammatory markers produced in response to TNFα include monocyte chemoattractant protein—MCP-1, and vascular cell adhesion molecule—VCAM-1. […] To determine whether compound mediating the activation of Peroxiredoxin will result in decreased inflammation, MCP-1 and VCAM-1 levels were measured in TNFα-induced endothelial cells. […] After fixing the cells, VCAM-1 expression was detected with the primary and secondary antibodies. Colorimetric measurements with made with the Multiskan Ascent plate reader.
In general terms: ELISA stands for enzyme-linked immunosorbent assay.

A further experiment deals with TNF-α. Description: LPS-induced acute inflammation in rats, serum TNF-α ELISA. The conditions noted are these: 60 mg/kg oral, LPS 1 mg/kg i.p., serum 1 hour after LPS. Format: in vivo, Sprague Dawley rats. On the procedure:
The compound A was orally administrated (60 mg/kg) to female Sprague Dawley rats followed by intraperitoneal administration lipopolysaccharide (LPS−1 mg/kg). Blood samples were collected 1 hour after LPS administration. TNF-α level in the serum was analyzed by using ELISA.

The subject of another experiment is Peroxiredoxin. Kind of experiment: Peroxiredoxin activity assay (NADPH oxidation coupled to H2O2 reduction). The class given is biochemical. The following applies: addition to liver cells (FIG. 3); assay method states 500 nM compound A. On the procedure: An in vitro assay was developed to identify compounds that activated Peroxiredoxin (Peroxiredoxin inducers). In a 96-well plate, Peroxiredoxin (0.1 μg) was incubated with 5 μM of an unknown candidate compound and mixed with Hepes buffer containing NADPH, thioredoxin, thioredoxin reductase and hydrogen peroxide. When hydrogen peroxide was reduced by the activated Peroxiredoxin, the quantitative indicator, NADPH was converted to NADP. A decrease in NADPH was monitored by determining the absorption at […]. A decrease in NADPH was therefore, indicative of a Peroxiredoxin inducer.
Peroxiredoxin-mediated reduction of H2O2 was coupled to oxidation of NADPH oxidation. NADPH oxidation was monitored as a decrease in absorbance at 340 nm (A340). The control reaction contained 50 mM Hepes-NaOH (pH 7.0), 1 mM EDTA, 2 μM thioredoxin, 150 nM thioredoxin reductase, H2O2 (8.8 mM), NADPH ([…]), and Peroxiredoxin (1 μM). The treatment group in addition contained 500 nM of compound A. The reaction was incubated for 30 seconds to 10 minutes and the change in absorbance was monitored.

Experiment [1] deals with Human Aortic Smooth Muscle cells. Description: Cellular peroxide levels (Amplex Red Kit). Format: cell-based. The following applies: 3 uM compound, 30 min pre-incubation then 1 hour in growth media, cell lysates. On the procedure: H2O2 levels in human aortic smooth muscle cells (Rockland, Me. Clonetics, catalog #CC-2535) were measured using Amplex Red Kit (Molecular Probes). Smooth muscle cells were cultured in Clonetics growth media containing 5% fetal bovine serum. Cells at 70 percent confluence were starved overnight in serum free media and incubated for further 30 min in serum free media alone (control) or medium containing […] compound A (treatment) for 30 minutes. Growth media containing serum was then added and incubated for one hour. The cells were then lysed and H2O2 was assayed in lysates using Amplex Red Kit (Molecular Probes).
To establish that compound mediated activation of Peroxiredoxin will result in decreased H2O2, H2O2 levels were measured in untreated (control) and compound A treated smooth muscle cells (See FIG. 16). Human Aortic Smooth Muscle cells at 70 percent confluence were starved overnight in basal media and incubated for further 30 min in basal medium alone (control) or medium containing 3 uM compound (treatment) for 30 minutes. Growth media was then added to the control sample and growth media plus compound was added to the treatment group and incubated for one hour. The cells were then lysed and H2O2 was assayed in lysates using Amplex Red Kit (Molecular Probes).

For another experiment, the system named is VCAM-1. Description: VCAM-1 ELISA in TNFα-induced endothelial cells. The conditions noted are these: Homo sapiens, Endothelial cell, 0.5 ng/ml TNFα, overnight, read-out: inhibition of VCAM-1 levels. The class given is cell-based. The method, then: Endothelial cell surface VCAM-1 was measured following compound A treatments. The cell layer was washed once with PBS and fixed with methanol. After fixing the cells, VCAM-1 expression was detected with the primary VCAM-1 antibody (goat-anti-Human VCAM-1 antibody—catalog# BBA19, R&D Systems) and secondary anti-goat antibody conjugated to horse radish peroxidase. Colorimetric measurements with made with the Multiskan Ascent plate reader.
TNF-alpha (TNFα) (R&D Systems, Minneapolis, Minn., Catalogue No. 210-TA-010) is a pro-inflammatory cytokine implicated in the development of cardiovascular disease. Inflammatory markers produced in response to TNFα include monocyte chemoattractant protein—MCP-1, and vascular cell adhesion molecule—VCAM-1. Endothelial cells are known to produce these markers in response TNFα. To determine whether compound mediating the activation of Peroxiredoxin will result in decreased inflammation, MCP-1 and VCAM-1 levels were measured in TNFα-induced endothelial cells. Cells were stimulated with 0.5 ng/ml of TNFα with or without compound A in basal media supplemented with 1% FBS. Each treatment condition was done in triplicate. […] After fixing the cells, VCAM-1 expression was detected with the primary and secondary antibodies. Colorimetric measurements with made with the Multiskan Ascent plate reader.

The test system of experiment [2] is apolipoprotein E-null mice. Description: Hyperlipidemia model, apolipoprotein E-null mice. The following applies: 100 mg/kg oral once a day, 14 days, plasma, vs vehicle. Format: in vivo. The method, then:
Second, 8 week old apolipoprotein E-null mice were fed with normal chow diet and once a day orally dosed with carboxymethyl cellulose suspension alone or Compound A at 100 mg/kg (in carboxymethyl cellulose suspension) for 14 days. At the end of the study, plasma levels of cholesterol and triglycerides were determined.

For experiment [3], the system named is HepG2 cells. Description: Real time-PCR gene expression in HepG2 cells. The class given is cell-based, human. The method, then: HepG2 cells were prepared from the T-75 flasks and were used to seed the 24-well plates with 1.6×10^5 cells per well per 1 ml of growth media. The next day, the media was removed and 1 ml of low-serum growth media was added to each well for 24 hours. The following day, the low-serum media was removed. In selected experiments, cells were treated with 100 uM H2O2 or si-Peroxiredoxin I. Media was removed and cells were lysed with the lysis buffer from the Ambion RNAqueous kit and plate was placed on ice. RNA was extracted using the kit according to the protocol. The RNA was quantitated using a spectrophotometer and frozen at −80° C. The next day, the RNA was used for real-time PCR. The RNA was thawed and master mixes for each primer were prepared with the Stratagene Full Velocity SYBR Green QRT-PCR Master Mix. Master Mix with primer was added to the appropriate wells then RNA was added to appropriate wells. […]
HepG2 cells were grown in T-75 flasks prior to study. […] Total cholesterol and apoB levels were measured using an enzymatic assay. Percentage change was evaluated by comparing to both the baseline and the vehicle at the end of the study. […] RNA was isolated according to the manufacturer's protocol (Qiagen) and analyzed for changes in gene expression normalized to actin using RT-PCR. […]

Experiment [4] relates to HepG2 cells. Description: Dil-LDL uptake assay in HepG2 cells. The class given is cell-based, human. On the procedure:
Glass cover slips were autoclaved and aseptically transferred to 6-well tissue culture plates in a tissue culture hood. HepG2 cells were prepared from the T-75 flasks and were used to seed the 6-well plates (containing sterile cover slips) with 7.5×10^5 cells per well per 1 ml of growth media. The following day, the media was removed and the wells were washed 3 times with 2 mL DMEM+10% DLCS very gently. After washes, 2 ml of DMEM+10% (DLCS) was added to the wells and treatments continued for 24 hours. In selected experiments, cells were treated with 100 uM H2O2, control IgG or perlecan antibodies. The next day, the media was not changed and Dil LDL and DAPI were added to wells for uptake (5 hours). After the uptake was completed, the wells were washed gently 3 times with PBS (2 mL/well/wash) and after last wash, cells were fixed with 1 mL of 4% formaldehyde in PBS for 20 minutes. Wells were washed 5 times with water in excess. Cover slips were then mounted to slides using clearmount. Slides were stored at −20° C. The slides were imaged using the Nikon microscope and ColdSNAP-Pro camera. […] Images were quantitated using Image Pro-Plus software. The intensity per area of the fluorescent label was quantitated using the software and was used to generate the figure which is LDL uptake per area as a percent of the control.

The next experiment has as its system Stat1. Description: Stat1 activity assay (Stat1-luciferase reporter). Format: cell-based, human. The following applies: HepG2 transfected with Stat1-luciferase. The method, then:
HepG2 cells were prepared from the T-75 flasks and were used to seed the 24-well plates with 7.6×10^4 cells per well per 0.5 ml of DMEM+10% FBS. The next day, Stat1-lucuferase transfections were set up with Fugene6 according to the manufacturer's directions. In brief, transfection mixtures were prepared in DMEM in separate tubes from the reporter constructs also in DMEM. The samples incubated for 5 minutes at room temperature. Then, the constructs were mixed with the Fugene6 and incubated again for 30 minutes at room temperature. Then 50 μl transfection mix was added to each well in the existing media. Cells were allowed to incubate over night. In selected experiments, cells were treated with 100 uM H2O2 as well as with siPRDX1. After treatment, cells were lysed with the Promega lysis buffer. The wells were scraped and lysates were transferred into pre-chilled tubes and the lysates were cleared via centrifugation. 20 μl of cleared lysate was added to wells in 96 well clear plates and 100 μl of luciferase assay buffer was added to wells. Relative light units were counted using the PerkinElmer Envision.
HepG2 were transiently transfected with a Stat1-luciferase reporter construct and subject to treatment with either H2O2 or siPeroxiredoxin 1. Bars show the mean±SD. Asterisks indicate statistical difference from the Mock group with significance values of p<0.05. […]
Background: A reporter such as luciferase makes a cellular process visible.

The conditions of experiment [5]: in vivo; cited from earlier work.

Regarding `COc1ccc(Nc2nc(NC3CCCCCC3)nc(N3CCC(OC(=O)CCC(=O)O)CC3)n2)cc1Cl` [Compound A], in the experiment on LDL-receptor null mice, the LDL cholesterol entry is recorded as “reduction”, the VLDL cholesterol entry was “reduction”, the total cholesterol entry is “reduction” and the triglycerides result was “reduction”. Also, in the experiment with MCP-1, the inhibition at 2.5 µM came to 75%. Besides, in the experiment with TNF-α, the “inhibition of LPS-induced TNFα elevation” value is recorded as “completely inhibited” and the “serum TNFα level” value is reported as “undetectable”. For the same compound, the “increase in Peroxiredoxin activity over controls” value in the experiment on Peroxiredoxin is recorded as 48%. For the same compound, the “decrease in H2O2 levels vs untreated control” value in experiment [1] is “approximately 77%”. The inhibition at 2.5 µM in the experiment on VCAM-1 amounted to 75%. In addition, in experiment [2], the total triglycerides result is on record as “reduction”.

Consider `OO` [Compound H2O2, hydrogen peroxide], for which, in the experiment on HepG2 cells [3], the “LDLr mRNA levels” value is on record as “did not have a significant effect” and the perlecan expression levels entry is given as “significantly reduced”. Moreover, in the experiment on HepG2 cells [4], the “LDL uptake by liver cells” value is listed as “significantly decreased”. For the same compound, the “Stat1 driven luciferase expression” value in the experiment with Stat1 was “significantly enhanced”.

In the case of `O=C1[C@H](CC[C@H](O)c2ccc(F)cc2)[C@@H](c2ccc(O)cc2)N1c1ccc(F)cc1` [Ezetimibe], the cholesterol lowering in experiment [5] is on record as 15-18%.

By inhibition is commonly meant the share of the control response that was lost under treatment.
